{
  "source": "ChEMBL document CHEMBL1201862",
  "about": "“PubChem BioAssay data set” (2004)",
  "key": {"[1]": {"biological_target": "T1, SUMO-activating enzyme (Homo sapiens, UniProt Q9UBT2)", "T1 sequence (Q9UBE0 whole entry)": "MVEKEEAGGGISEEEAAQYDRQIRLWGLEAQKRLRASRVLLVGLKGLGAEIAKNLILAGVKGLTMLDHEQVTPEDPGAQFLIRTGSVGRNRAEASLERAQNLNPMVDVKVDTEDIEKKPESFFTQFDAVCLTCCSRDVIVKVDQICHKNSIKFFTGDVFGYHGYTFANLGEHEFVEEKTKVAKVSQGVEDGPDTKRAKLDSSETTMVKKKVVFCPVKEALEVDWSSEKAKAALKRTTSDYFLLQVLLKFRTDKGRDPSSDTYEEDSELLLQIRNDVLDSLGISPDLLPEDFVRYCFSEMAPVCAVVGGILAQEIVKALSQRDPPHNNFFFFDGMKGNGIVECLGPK", "T1 sequence (Q9UBT2 whole entry)": "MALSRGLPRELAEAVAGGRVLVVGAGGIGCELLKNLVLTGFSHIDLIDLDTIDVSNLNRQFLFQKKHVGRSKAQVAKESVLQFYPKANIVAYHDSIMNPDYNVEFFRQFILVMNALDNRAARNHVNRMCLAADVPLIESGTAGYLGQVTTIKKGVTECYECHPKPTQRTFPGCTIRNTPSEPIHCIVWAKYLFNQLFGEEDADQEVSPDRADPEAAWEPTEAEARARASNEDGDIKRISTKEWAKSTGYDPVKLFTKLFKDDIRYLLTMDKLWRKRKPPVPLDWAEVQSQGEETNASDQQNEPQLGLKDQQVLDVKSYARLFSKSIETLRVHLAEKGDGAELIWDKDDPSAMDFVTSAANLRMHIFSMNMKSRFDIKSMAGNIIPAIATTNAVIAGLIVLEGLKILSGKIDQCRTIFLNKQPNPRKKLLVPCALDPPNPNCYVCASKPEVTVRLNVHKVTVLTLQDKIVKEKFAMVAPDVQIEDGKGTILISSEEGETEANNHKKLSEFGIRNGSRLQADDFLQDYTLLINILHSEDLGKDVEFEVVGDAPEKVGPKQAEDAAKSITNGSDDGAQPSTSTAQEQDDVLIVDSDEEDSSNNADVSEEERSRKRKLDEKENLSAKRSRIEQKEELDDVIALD", "test": "inhibitors of in vitro SUMOylation cascade, primary screen, biochemical, HTRF, uHTS (AID 2006)", "format": "protein-complex assay"}, "[2]": {"biological_target": "T1, SUMO-activating enzyme", "test": "SUMOylation inhibitor hit validation, confirmation, SUMOylation inhibitor project, biochemical, AlphaScreen (AID 2018)", "format": "functional"}, "[3]": {"test": "Luminescence Cell-Based Dose Retest to Confirm Inhibitors of Cancer Stem Cells. [Related pubchem assays (depositor defined):AID2717, AID2721]", "format": "functional", "conditions": "Homo sapiens"}, "[4]": {"test": "control 3'UTR Renilla luciferase suppression, dose response, counter-screen for Shn3 inhibitor project, cell-based, Clone20-Shn3RL, cherry-picked (AID 624133)", "format": "functional"}, "[5]": {"biological_target": "Protein Wnt-3a (Mus musculus, UniProt P27467)", "sequence (P27467 whole entry)": "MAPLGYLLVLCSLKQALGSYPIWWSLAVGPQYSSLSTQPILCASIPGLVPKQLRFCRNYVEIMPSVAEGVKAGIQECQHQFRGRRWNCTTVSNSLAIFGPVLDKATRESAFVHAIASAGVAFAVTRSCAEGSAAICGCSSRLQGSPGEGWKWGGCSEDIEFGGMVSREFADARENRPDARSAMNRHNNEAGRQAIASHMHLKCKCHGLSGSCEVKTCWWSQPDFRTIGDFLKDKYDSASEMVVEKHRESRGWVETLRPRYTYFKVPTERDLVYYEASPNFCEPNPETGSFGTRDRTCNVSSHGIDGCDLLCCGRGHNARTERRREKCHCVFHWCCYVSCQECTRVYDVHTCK", "test": "Wnt3a-driven reporter signaling inhibition, dose response, selectivity assay for Gli-SUFU antagonist project, Wnt-LIGHT cells, luminescence (AID 651570);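 also: Wnt-LIGHT reporter cells stimulated with conditioned medium from Wnt3a-producing cells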", "format": "functional", "conditions": "read-out: IC50_Mean"}, "[6]": {"test": "Shn3 3'UTR reporter inhibitors, dose response, cell-based, Clone20 osteoblasts, firefly luciferase, cherry-picked (AID 624132)", "format": "functional"}, "[7]": {"test": "cytotoxicity in HEK-293T cells, dose response, cytotoxicity control for BCR NF-kB inhibitor project, luminescence, B-cell screen hits (AID 489021);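 also: cells exposed to compound for about 14 hours before viability readout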", "format": "functional, cell-based"}, "[8]": {"test": "HepG2 cell cytotoxicity, dose response, cytotoxicity control for Shn3 inhibitor project, CellTiter-Glo, cherry-picked (AID 624134)", "format": "functional, cell-based"}, "[9]": {"test": "Luminescence Cell-Based Dose Confirmation HTS to Identify Activators of 5'UTR Stem-Loop Driven Alpha-Synuclein mRNA Translation in H4 Neuroglioblastoma Cells. [Related pubchem assays: 1829 (Project Summary), 1814 (Primary HTS)]", "format": "functional"}, "[10]": {"test_system": "H4", "test": "Luminescence Cell-Based Dose Response HTS to Identify Activators of 5'UTR Stem-Loop Driven Prion Protein mRNA Translation in H4 Neuroglioblastoma Cells. [Related pubchem assays: 1829 (Project Summary), 1814 (Primary HTS)]", "format": "functional", "conditions": "Homo sapiens"}, "[11]": {"biological_target": "T2, Aminopeptidase N (Plasmodium falciparum FcB1/Columbia, UniProt O96935)", "T2 sequence (O96935 whole entry)": "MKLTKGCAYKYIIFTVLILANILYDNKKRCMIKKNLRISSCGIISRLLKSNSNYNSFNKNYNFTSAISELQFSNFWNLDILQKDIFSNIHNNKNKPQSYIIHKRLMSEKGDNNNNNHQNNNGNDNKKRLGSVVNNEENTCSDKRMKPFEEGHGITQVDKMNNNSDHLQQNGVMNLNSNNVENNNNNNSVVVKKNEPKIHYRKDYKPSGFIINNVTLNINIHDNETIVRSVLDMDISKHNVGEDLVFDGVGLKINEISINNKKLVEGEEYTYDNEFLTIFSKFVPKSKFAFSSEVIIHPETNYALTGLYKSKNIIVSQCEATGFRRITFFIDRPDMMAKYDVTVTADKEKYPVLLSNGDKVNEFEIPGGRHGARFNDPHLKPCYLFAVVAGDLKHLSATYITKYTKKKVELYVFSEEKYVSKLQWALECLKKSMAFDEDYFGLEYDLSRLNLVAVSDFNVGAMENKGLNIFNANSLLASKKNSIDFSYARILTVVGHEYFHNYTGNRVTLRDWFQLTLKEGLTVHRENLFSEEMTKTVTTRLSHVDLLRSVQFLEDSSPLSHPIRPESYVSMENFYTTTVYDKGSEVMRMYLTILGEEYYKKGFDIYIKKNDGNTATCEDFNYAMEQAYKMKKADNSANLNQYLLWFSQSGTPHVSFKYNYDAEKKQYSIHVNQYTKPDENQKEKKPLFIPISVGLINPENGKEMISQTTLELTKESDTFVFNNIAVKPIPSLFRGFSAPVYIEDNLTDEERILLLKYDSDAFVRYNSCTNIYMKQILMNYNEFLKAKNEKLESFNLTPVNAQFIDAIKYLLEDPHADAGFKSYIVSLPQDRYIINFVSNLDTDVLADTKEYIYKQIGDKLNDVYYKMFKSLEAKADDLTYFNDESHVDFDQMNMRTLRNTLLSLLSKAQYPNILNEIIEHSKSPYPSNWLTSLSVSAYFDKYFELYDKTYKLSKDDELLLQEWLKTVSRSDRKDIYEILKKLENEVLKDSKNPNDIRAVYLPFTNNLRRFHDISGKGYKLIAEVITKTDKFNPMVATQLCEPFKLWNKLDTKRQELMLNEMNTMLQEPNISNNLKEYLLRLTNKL", "test": "P. falciparum M1AAP inhibitors, biochemical, fluorogenic H-Leu-NHMec substrate, 1536-well (AID 1445)", "design": "species or system Plasmodium falciparum 3D7, 3D7"}, "[12]": {"test": "Luminescence Cell-Based Dose Response HTS to Identify Activators of Luciferase Translation or Activity in H4 […] Cells. [Related pubchem assays: 1829 (Project Summary), 1814 (Primary HTS)]", "format": "functional"}, "[13]": {"biological_target": "T3, Heat shock factor protein 1 (Mus musculus, UniProt P38532)", "T3 sequence (P38532 whole entry)": "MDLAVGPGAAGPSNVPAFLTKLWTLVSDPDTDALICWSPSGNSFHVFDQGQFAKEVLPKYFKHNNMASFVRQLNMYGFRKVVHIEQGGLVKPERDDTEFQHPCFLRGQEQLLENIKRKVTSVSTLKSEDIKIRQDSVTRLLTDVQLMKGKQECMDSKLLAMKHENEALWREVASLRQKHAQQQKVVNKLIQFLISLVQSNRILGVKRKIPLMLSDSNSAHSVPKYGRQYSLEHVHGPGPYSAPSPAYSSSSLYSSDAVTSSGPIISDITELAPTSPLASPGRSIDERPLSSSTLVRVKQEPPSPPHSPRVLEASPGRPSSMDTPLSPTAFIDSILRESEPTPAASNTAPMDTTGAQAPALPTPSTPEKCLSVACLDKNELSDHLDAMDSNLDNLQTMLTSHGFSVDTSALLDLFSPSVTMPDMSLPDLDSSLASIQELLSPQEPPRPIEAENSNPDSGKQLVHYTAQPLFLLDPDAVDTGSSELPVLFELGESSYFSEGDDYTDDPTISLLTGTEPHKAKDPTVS", "test": "HSF1 potentiators in luciferase reporter cells, confirmation, cell-based, NIH3T3, luminescence, dose retest (AID 435004);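 also: stress induced by proteasome inhibitor MG132 added 30 min after compound; actives raise luminescence as potentiators of the MG132 stress response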", "format": "functional"}, "[14]": {"test": "cytotoxicity in HEK-293T cells, dose response, cytotoxicity control for TCR NF-kB inhibitor project, luminescence, T-cell screen hits (AID 489026);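 also: cells exposed to compound about 14 hours before the viability readout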", "format": "functional, cell-based"}, "[15]": {"biological_target": "T4, Rac GTPase-activating protein 1 (Homo sapiens, UniProt Q9H0H5)", "T4 sequence (Q9H0H5 whole entry)": "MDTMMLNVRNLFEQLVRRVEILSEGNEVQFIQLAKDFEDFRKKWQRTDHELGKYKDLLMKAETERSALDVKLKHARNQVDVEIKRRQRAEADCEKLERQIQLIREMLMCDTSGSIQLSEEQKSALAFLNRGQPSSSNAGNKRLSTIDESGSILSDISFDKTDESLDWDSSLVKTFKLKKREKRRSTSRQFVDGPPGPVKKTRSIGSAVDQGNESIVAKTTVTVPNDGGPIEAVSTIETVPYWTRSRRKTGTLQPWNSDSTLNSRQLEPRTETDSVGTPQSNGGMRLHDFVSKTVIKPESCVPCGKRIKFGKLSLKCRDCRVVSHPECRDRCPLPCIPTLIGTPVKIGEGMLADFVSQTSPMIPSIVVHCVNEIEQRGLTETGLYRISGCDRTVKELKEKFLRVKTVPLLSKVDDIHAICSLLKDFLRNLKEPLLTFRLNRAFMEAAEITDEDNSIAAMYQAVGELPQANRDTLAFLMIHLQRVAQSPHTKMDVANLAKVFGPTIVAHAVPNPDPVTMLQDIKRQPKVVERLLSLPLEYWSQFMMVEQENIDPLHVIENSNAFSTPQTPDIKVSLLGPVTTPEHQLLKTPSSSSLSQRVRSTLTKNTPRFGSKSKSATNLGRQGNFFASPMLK", "test": "MgcRacGAP GTPase-activating activity inhibitors, confirmation, biochemical, ADP Hunter fluorescence, primary and confirmatory (AID 624330)", "format": "functional"}, "[16]": {"biological_target": "Eukaryotic translation initiation factor 4E (Mus musculus, UniProt P63073)", "sequence (P63073 whole entry)": "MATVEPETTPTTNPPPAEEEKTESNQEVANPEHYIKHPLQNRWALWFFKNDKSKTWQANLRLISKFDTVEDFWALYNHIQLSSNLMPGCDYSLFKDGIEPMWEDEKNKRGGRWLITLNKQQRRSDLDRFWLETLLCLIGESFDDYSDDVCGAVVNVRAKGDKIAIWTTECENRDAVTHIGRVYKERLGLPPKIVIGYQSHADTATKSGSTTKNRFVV", "test": "eIF4E–eIF4G protein interaction inhibitors, dose response, biochemical, TR-FRET (AID 855);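 also: potency for disrupting eIF4E binding to eIF4GI seen as loss of FRET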", "format": "functional"}, "[17]": {"biological_target": "T5, Leucine aminopeptidase (Plasmodium falciparum 3D7, UniProt Q8IL11)", "T5 sequence (Q8IL11 whole entry)": "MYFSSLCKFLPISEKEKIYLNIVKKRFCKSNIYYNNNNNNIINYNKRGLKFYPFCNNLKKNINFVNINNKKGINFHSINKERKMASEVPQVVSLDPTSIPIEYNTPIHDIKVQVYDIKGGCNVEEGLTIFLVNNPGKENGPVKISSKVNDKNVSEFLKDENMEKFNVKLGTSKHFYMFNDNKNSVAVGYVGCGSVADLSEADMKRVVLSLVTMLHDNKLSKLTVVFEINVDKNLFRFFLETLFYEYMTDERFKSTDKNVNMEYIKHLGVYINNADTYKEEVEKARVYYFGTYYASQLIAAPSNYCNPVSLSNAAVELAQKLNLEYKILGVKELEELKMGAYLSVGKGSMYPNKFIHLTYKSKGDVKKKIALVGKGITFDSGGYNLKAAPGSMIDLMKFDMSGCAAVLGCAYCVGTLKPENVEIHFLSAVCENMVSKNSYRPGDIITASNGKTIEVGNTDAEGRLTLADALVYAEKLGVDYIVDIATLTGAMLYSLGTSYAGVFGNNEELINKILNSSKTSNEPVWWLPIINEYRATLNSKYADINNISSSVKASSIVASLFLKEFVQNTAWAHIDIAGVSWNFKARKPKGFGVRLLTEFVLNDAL", "test": "P. falciparum M17LAP inhibitors, primary screen, biochemical, fluorogenic H-Leu-NHMec substrate, 1536-well (AID 1619)", "format": "functional"}},
  "note": "Active and inactive are the calls of the source.",
  "data": [
    {"compound": "CCOC(=O)c1c(CSc2ccccc2)n(C)c2cc(Br)c(OCC(O)CNC(CO)(CO)CO)cc12", "note": "(centres undefined)", "values": [
      {"measurement": "IC50", "setting": "[1]", "result": "17.9 µM (active)"},
      {"measurement": "IC50", "setting": "[2]", "result": "2.75 µM (active)"},
      {"measurement": "AC50", "setting": "[3]", "result": "1.46 µM (active)"}
    ]},
    {"compound": "CC1CN(S(=O)(=O)c2ccc(C(=O)Nc3nc(-c4cc5ccccc5o4)cs3)cc2)CC(C)O1", "note": "(centres undefined)", "values": [
      {"measurement": "AC50", "setting": "[4]", "result": "2.04 µM (active)"},
      {"measurement": "IC50", "setting": "[5]", "result": "1.28 µM (active)"},
      {"measurement": "AC50", "setting": "[6]", "result": "< 0.26 µM (active)"},
      {"measurement": "IC50", "setting": "[7]", "result": "> 80 µM (inactive)"},
      {"measurement": "AC50", "setting": "[8]", "result": "1.02 µM (active)"}
    ]},
    {"compound": "N#Cc1nc(/C=C/c2ccccc2)oc1NCCCN1CCOCC1", "values": [
      {"measurement": "EC50", "setting": "[9]", "result": "22.1 µM (active)"},
      {"measurement": "EC50", "setting": "[10]", "result": "38 µM (active)"},
      {"measurement": "IC50", "setting": "[11]", "result": "39.2 µM (active)"},
      {"measurement": "EC50", "setting": "[12]", "result": "7.23 µM (active)"}
    ]},
    {"compound": "COc1ccc(/C=C2\\SC(=S)N(CCC(=O)Nc3ccc(O)cc3)C2=O)cc1", "values": [
      {"measurement": "IC50", "setting": "[7]", "result": "> 80 µM (inactive)"}
    ]},
    {"compound": "Cc1ccc(O)c(NC(=O)COc2cc(C)ccc2C)c1", "values": [
      {"measurement": "EC50", "setting": "[13]", "result": "> 260 µM (inactive)"},
      {"measurement": "IC50", "setting": "[7]", "result": "> 80 µM (inactive)"}
    ]},
    {"compound": "CCc1ccc(/C=N/NC(=O)c2cc(-c3ccncc3)nc3ccccc23)s1", "values": [
      {"measurement": "IC50", "setting": "[14]", "result": "> 80 µM (inactive)"}
    ]},
    {"compound": "Cc1cccc(Nc2nnc(S)s2)c1C", "values": [
      {"measurement": "IC50", "setting": "[15]", "result": "67.2 µM (active)"},
      {"measurement": "IC50", "setting": "[16]", "result": "> 64 µM (inactive)"},
      {"measurement": "IC50", "setting": "[17]", "result": "9.62 µM (active)"}
    ]}
  ]
}
